Measured values: paper PMC6930638, “The Masked Polar Group Incorporation (MPGI) Strategy in Drug Design: Effects of Nitrogen Substitutions on Combretastatin and Isocombretastatin Tubulin Inhibitors” (Molecules, 2019)
Like-named read-outs stand apart in the source and are kept apart here.

How the values were obtained:
[1] = tested on: MCF-7 breast adenocarcinoma; test: MTT cell antiproliferative assay, MCF-7; type: cell-based; conditions: Homo sapiens, MCF7, 72 h
Experimental: (§1) The in vitro antiproliferative activity of the synthesized compounds was evaluated by a colorimetric reaction, using the MTT reagent. They were tested against three different human tumor cell lines: HeLa cervix epithelioid carcinoma, HT-29 colon adenocarcinoma, and MCF-7 breast adenocarcinoma. […] Moving the alkylamino substituent from a para to a meta position with respect to the bridge results in potency reduction, except for the phenstatin analogue 1f. However, the introduction of a nitrogen atom to form 2-dimethylaminopyridine derivatives entails a loss of activity, both for phenstatin analogues (1b, 2b), while for isocombretastatins, it only involves a 2–3 times potency decrease (3b). For combretastatins, it implies an improvement in the cytotoxicity values down to tenths of nanomolar (8b). […] On the other hand, the best 2-dimethylaminopyridine was combretastatin 8b. All ammonium salts derivatives were not cytotoxic at micromolar concentrations.
(§2) HeLa (human cervical carcinoma) and MCF-7 (human breast carcinoma) cell lines were cultured in Dulbecco’s Modified Eagles Medium (DMEM) supplemented with 2 mM L-glutamine (Lonza-Cambrex, Karlskoga, Sweden), 10% (v/v) heat inactivated fetal bovine serum (HIFBS) (Lonza-Cambrex) and 100 μg/mL streptomycin-100 IU/mL penicillin (Lonza-Cambrex) at 37 °C in humidified 95% air and 5% CO2. HT-29 (human colon carcinoma) cells were cultured at 37 °C in complete RPMI 1640 medium containing 2 mM L-glutamine, 10% (v/v) HIFBS and 100 μg/mL streptomycin-100 IU/mL penicillin in humidified 95% air and 5% CO2 atmosphere.
(§3) The effect of the different compounds on the proliferation of human cell lines was determined by using the MTT (3-[4,5-dimethylthiazol-2-yl]-2,5-diphenyltetrazolium bromide) reagent (MTT Thiazolyl Blue Tetrazolium Bromide, Sigma-Aldrich, St. Louis, MO, USA) dissolved in PBS 5 mg/mL. Cell viability was evaluated seeding 100 µL of cells in exponential growth phase with appropriate cell line concentration (1.5 × 10^4 HeLa and MCF-7 cells/mL and 3 × 10^4 HT-29 cells/mL) in complete medium in 96-well plates at 37 °C and 5% CO2. After 24 h incubation to allow cells to attach to the plates the ligands were added at different concentrations from 10^−5 to 10^−9 M. The effect on the proliferation was evaluated 72 h post-treatment by adding the MTT reagent (10 µL/well) to a final concentration of 0.5 mg/mL and the plate was further incubated for another 3 h. After this period, the supernatant was removed, the MTT violet crystals formed on the bottom of each well were dissolved in DMSO (100 µL/well) and subsequently, the absorbance of the color complex was read at 570 nm using a multi-well plate reader. Compounds were dissolved in dimethyl sulfoxide (DMSO) and the final solvent concentrations never exceeded 0.5% (v/v). The control wells included treated cells with 0.5% (v/v) DMSO and the positive control. Measurements were performed in triplicate, and each experiment was repeated three times. […] Nonlinear curves fitting the experimental data were carried out for each compound.

[2] = tested on: Bovine brain microtubule protein (MTP); test: Tubulin polymerization inhibition assay (turbidimetry); type: biochemical; conditions: 1.5 mg/mL MTP; IC50 calculated only if more than 50% inhibition at 20 µM; read-out: TPI IC50
Experimental: Bovine brain microtubule protein (MTP) was isolated as previously described. Briefly, it was purified according to the modified Shelanski method by two cycles of temperature-dependent assembly/disassembly.
Tubulin polymerization was monitored using a Helios α spectrophotometer by measuring the increase in turbidity at 450 nm, caused by a shift from 4 °C to 37 °C, which allows the in vitro MTP self-disassembly and assembly respectively. […] Firstly, ligands at 20 µM concentration, were incubated with 1.5 mg/mL MTP at 20 °C for 30 min and subsequently cooled on ice for 10 min. Then, the experiment starts at 4 °C to establish the initial baseline. The assembly process was initiated by shifting of the temperature to 37 °C and the turbidity produced can be measured by an absorbance increase. After reaching a stable plateau, the temperature was switched back to 4 °C to return to the initial absorption values. The difference in amplitude between the stable plateau and the initial baseline of the curves was taken as the degree of tubulin polymerization for each experiment. […] All the measurements were carried out in at least two independent experiments using MTP from different isolation.

[3] = tested on: HeLa cervix epithelioid carcinoma; test: MTT cell antiproliferative assay, HeLa; type: cell-based; conditions: Homo sapiens, 72 h
Experimental: as §1, §2, §3

[4] = tested on: HeLa, HT-29 and MCF-7 human tumor cell lines; test: Antiproliferative activity over the three human tumor cell lines (MTT); type: cell-based; conditions: range over the cell lines, Table S1, read-out: Cytotoxicity range (range of antiproliferative IC50 values)
Experimental: as §1
The antiproliferative activity of the compounds against three human tumor cell lines of different origins (i.e., HeLa cervix epithelioid carcinoma, HT-29 colon adenocarcinoma and MCF-7 breast adenocarcinoma) was evaluated by the MTT method. […] This high success rate is the result of a combination of favorable scaffolds and substituents, and it is similar to those of previous reports on related series. […] We have previously observed the same trend for related compounds acting at the colchicine site of tubulin [10, 23]. For this pyridine series, we observed a different potency trend when we compare the 4-amino-3-pyridine and the 3-amino-4-pyridine derivatives. […] This different behavior is probably a reflection of their different shape, combined with the different geometries imposed by different bridges. We have previously shown that the potency ordering isocombretastatins similar to oximes higher than benzophenones could be explained by the higher conjugation of the ketones with the aromatic rings, which imposes a more planar disposition than those required for high affinity colchicine site binding. For the 3-amino-4-pyridine series, more planar structures are required in order to avoid the bumping of the amino substituents with tubulin out the plane of the aromatic ring, an effect which we have previously shown to impact the potency of 3-substituted indolecombretastatins and dimethylaminophenyl phenstatins. This different geometrical disposition of the amino substituents, and the different adaptability of their corresponding pockets in the two series, can also account for the preference of bulkier substituents at position 3, such as the pyrrolidine rather than the smaller dimethylamino. […] The opposite is observed for the 4-dimethylaminophenyl phenstatins 1a and 1b. […] The remarkable levels of solubility achieved for the quaternary ammonium salts came unfortunately at the expenses of biological activity.
The effect of the different compounds on the proliferation of human cell lines was determined by using the MTT (3-[4,5-dimethylthiazol-2-yl]-2,5-diphenyltetrazolium bromide) reagent (MTT Thiazolyl Blue Tetrazolium Bromide, Sigma-Aldrich, St. Louis, MO, USA) dissolved in PBS 5 mg/mL. Cell viability was evaluated seeding 100 µL of cells in exponential growth phase with appropriate cell line concentration (1.5 × 10^4 HeLa and MCF-7 cells/mL and 3 × 10^4 HT-29 cells/mL) in complete medium in 96-well plates at 37 °C and 5% CO2. After 24 h incubation to allow cells to attach to the plates the ligands were added at different concentrations from 10^−5 to 10^−9 M. The effect on the proliferation was evaluated 72 h post-treatment by adding the MTT reagent (10 µL/well) to a final concentration of 0.5 mg/mL and the plate was further incubated for another 3 h. […]

IC50 [1] | IC50 [2] | IC50 [3] | SMILES | IC50 ([4]; Homo sapiens) | IC50 [4] | IC50 ([4]; heading: Cytotoxicity range)
> 1 µM | > 20 µM | > 1 µM | COc1ccc(OC)c(C(=O)c2ccc(N(C)C)cc2)c1 [Compound 1e, (2,5-dimethoxyphenyl)(4-(dimethylamino)phenyl)methanone] | > 1 µM |  | 
> 1 µM | > 20 µM | > 1 µM | COc1cc(C(=NO)c2ccc(N3CCCC3)nc2)cc(OC)c1OC [Compound 2c, (6-(Pyrrolidin-1-yl)pyridin-3-yl)(3,4,5-trimethoxyphenyl)methanone oxime] |  |  | 
> 1 µM | > 20 µM | > 1 µM | COc1ccc(OC)c(C(=NO)c2ccc(N(C)C)cc2)c1 [Compound 2e, (2,5-Dimethoxyphenyl)(4-(dimethylamino)phenyl)methanone oxime] |  |  | 
> 1 µM | > 20 µM | > 1 µM | C=C(c1ccc(N(C)C)cc1)c1cc(OC)ccc1OC [Compound 3e, 4-(1-(2,5-Dimethoxyphenyl)vinyl)-N,N-dimethylaniline] | > 1 µM |  | 
> 1 µM | > 20 µM | > 1 µM | COc1ccc(C(C)c2ccc(N(C)C)cc2)c(OC)c1OC (stereo not drawn) [Compound 4d, N,N-Dimethyl-4-(1-(2,3,4-trimethoxyphenyl)ethyl)aniline] | > 1 µM |  | 
> 1 µM | > 20 µM | > 1 µM | COc1ccc(OC)c(C(C)c2ccc(N(C)C)cc2)c1 (stereo not drawn) [Compound 4e, 4-(1-(2,5-Dimethoxyphenyl)ethyl)-N,N-dimethylaniline] | > 1 µM |  | 
> 1 µM | > 20 µM | > 1 µM | COc1cc(C(C)c2cccc(N(C)C)c2)cc(OC)c1OC (stereo not drawn) [Compound 4f, N,N-Dimethyl-3-(1-(3,4,5-trimethoxyphenyl)ethyl)aniline] | > 1 µM |  | 
> 1 µM | > 20 µM | > 1 µM | COc1cc(C(=O)c2ccc([N+](C)(C)C)cc2)cc(OC)c1OC [Compound 5a, N,N,N-Trimethyl-4-(3,4,5-trimethoxybenzoyl)benzenaminiumiodide] | > 1 µM |  | 
> 1 µM | > 20 µM | > 1 µM | COc1cc(C=Cc2ccc(N3CCCC3)nc2)cc(OC)c1OC [Compound 8c, 2-(Pyrrolidin-1-yl)-5-(3,4,5-trimethoxystyryl)pyridine] | > 1 µM |  | 
> 1 µM | > 20 µM | > 1 µM | COc1cc(C=Cc2ccc([N+](C)(C)C)cc2)cc(OC)c1OC [Compound 9a, N,N,N-trimethyl-4-(3,4,5-trimethoxystyryl)benzenaminium iodide] | > 1 µM |  | 
> 1 µM |  | > 1 µM | COc1cc(C=Cc2ccc([N+]3(C)CCCC3)cc2)cc(OC)c1OC [Compound 9i, 1-Methyl-1-(4-(3,4,5-trimethoxystyryl)phenyl)pyrrolidin-1-ium iodide] |  |  | 
 |  |  | COc1cc(C(=NO)c2ccc(N3CCCC3)nc2)cc(OC)c1OC [Compound E-2c, (6-(Pyrrolidin-1-yl)pyridin-3-yl)(3,4,5-trimethoxyphenyl)methanone oxime] |  | > 1 µM | 
 |  |  | COc1ccc(C(=NO)c2ccc(N(C)C)cc2)c(OC)c1OC [Compound E-2d, (4-(Dimethylamino)phenyl)(2,3,4-trimethoxyphenyl)methanone oxime] | 0.277 to 0.677 µM |  | 
 |  |  | COc1ccc(OC)c(C(=NO)c2ccc(N(C)C)cc2)c1 [Compound E-2e, (2,5-Dimethoxyphenyl)(4-(dimethylamino)phenyl)methanone oxime] | > 1 µM |  | 
 |  |  | COc1cc(C(=NO)c2cccc(N(C)C)c2)cc(OC)c1OC [Compound E-2f, (3-(Dimethylamino)phenyl)(3,4,5-trimethoxyphenyl)methanone oxime] | > 1 µM |  | 
 |  |  | COc1cc(C(=NO)c2ccnc(N(C)C)c2)cc(OC)c1OC [Compound E-2g, (2-(Dimethylamino)pyridin-4-yl)(3,4,5-trimethoxyphenyl)methanone oxime] | 0.407 to 3.33 µM |  | 
 |  |  | COc1cc(C(=NO)c2ccc([N+](C)(C)C)cc2)cc(OC)c1OC [Compound E-6a, 4-((Hydroxyimino)(3,4,5-trimethoxyphenyl)methyl)-N,N,N-trimethylbenzenaminium iodide] | > 1 µM |  | 
 |  |  | COc1cc(C(=NO)c2ccc(N3CCCC3)nc2)cc(OC)c1OC [Compound Z-2c, (6-(Pyrrolidin-1-yl)pyridin-3-yl)(3,4,5-trimethoxyphenyl)methanone oxime] |  |  | > 1 µM
 |  |  | COc1ccc(OC)c(C(=NO)c2ccc(N(C)C)cc2)c1 [Compound Z-2e, (2,5-Dimethoxyphenyl)(4-(dimethylamino)phenyl)methanone oxime] |  | > 1 µM | 
 |  |  | COc1cc(C(=NO)c2cccc(N(C)C)c2)cc(OC)c1OC [Compound Z-2f, (3-(Dimethylamino)phenyl)(3,4,5-trimethoxyphenyl)methanone oxime] |  | > 1 µM | 
 |  |  | COc1cc(C(=NO)c2ccnc(N(C)C)c2)cc(OC)c1OC [Compound Z-2g, (2-(Dimethylamino)pyridin-4-yl)(3,4,5-trimethoxyphenyl)methanone oxime] |  | 0.407 to 3.33 µM | 
 |  |  | COc1cc(C(=NO)c2ccc([N+](C)(C)C)cc2)cc(OC)c1OC [Compound Z-6a, 4-((Hydroxyimino)(3,4,5-trimethoxyphenyl)methyl)-N,N,N-trimethylbenzenaminium iodide] |  | > 1 µM | 
